Experimental data from paper PMC6482291, “Anticonvulsant Activity of Pterostilbene in Zebrafish and Mouse Acute Seizure Tests” (Neurochemical Research, 2019).

Columns and labels:
[1] = system: PTZ-induced seizure-like behavior in zebrafish larvae; experiment: Larval zebrafish PTZ seizure assay, locomotor activity tracking; format: in vivo, Danio rerio; details: 10 µM PTE, 2 h incubation, 20 mM PTZ; vs vehicle + PTZ
Protocol: The locomotor activity of larvae was assessed as previously described. A single 117 hpf zebrafish larvae was placed in a 48-well plate (one larva per well) filled with 200 µl of vehicle or PTE solution (10 µM). Subsequently, larvae were incubated for 2 h, at 28.5 °C. Next, 100 µl of vehicle or PTZ was added to each well. Within 5 min, plates were positioned in an automated tracking device (ZebraBox, Viewpoint, Lyon, France) and larvae were tracked for 30 min, with a 5 min integration interval. All measurements were performed at the same daytime period. The […] distance (in millimeters) covered by each larva was recorded. Three independent experiments were done (n = 12/group) and the data were pooled together. […] The data were normalized against PTZ values.

[2] = system: PTZ-induced epileptiform discharges in zebrafish larvae; experiment: Electrographic discharge assessment (LFP recordings from optic tectum) in zebrafish larvae exposed to PTZ; format: in vivo, Danio rerio; details: 10 µM PTE, 2 h incubation, 20 mM PTZ, 20 min recording
Protocol: For local field potential (LFP) recordings, zebrafish larvae were incubated for 2 h, as described above. After incubation, larvae were exposed to vehicle or 20 mM PTZ for 5 min. Thereafter, larvae were immobilized in a thin layer of 2% low-melting-point agarose and the glass electrode (resistance […]) filled with artificial cerebrospinal fluid (124 mM NaCl, 2 mM KCl, 2 mM MgSO4, 2 Mm CaCl2, 1.25 mM KH2PO4, 26 mM NaHCO3, 10 mM glucose) was placed into the optic tectum (MultiClamp 700B amplifier, Digidata 1440A digitizer, Axon instruments, USA). Single recordings for each larva were performed for a period of 20 min. The discharges were analyzed according to the duration of spiking paroxysms and only those where the amplitude exceeded three times the background noise were taken into account. The data were analyzed with the aid of Clampfit 10.2 software (Molecular Devices Corporation, USA).

[3] = system: 6 Hz-induced psychomotor seizures in mice; experiment: 6 Hz psychomotor seizure threshold test; format: in vivo; details: 30 min before test, 95% confidence limits in brackets
Source text: (§1) Psychomotor (limbic) seizures were induced by transcorneal stimulation (6 Hz, 0.2 ms rectangular pulse, 3 s duration) generated by a Grass S48 stimulator coupled with a constant current unit CCU1 (both from Grass Technologies, West Warwick, RI, USA). Before stimulation a drop of ocular anesthetic, 1% tetracaine hydrochloride solution, was applied into the animals’ corneas. The electrodes were soaked in saline to ensure the good electrical contact. During the stimulation animals were restrained manually and immediately after the stimulation were placed in a Plexiglas box for observation of presence or absence of the psychomotor seizures. These seizures were characterized by immobilization or stun, often associated with rearing, forelimb clonus, twitching of vibrissae and elevated tail (Straub-tail), lasting at least 10 s from the stimulation. Lack of the above symptoms or their cessation within 10 s from the stimulation was considered as absence of seizure activity.
In the present study two 6 Hz-induced psychomotor seizure tests were performed: (1) the 6 Hz psychomotor seizure threshold test which employed stimulation at varied current intensities, and (2) the 6 Hz psychomotor seizure test with supramaximal stimulation at 32 mA and 44 mA.
In the 6 Hz psychomotor seizures threshold test, threshold current intensity (CS50 in mA) was estimated in groups of 20 animals according to the above mentioned up-and-down method.

[4] = system: 6 Hz-induced psychomotor seizures in mice; experiment: 6 Hz psychomotor seizure test with supramaximal stimulation (32 and 44 mA); format: in vivo; details: Mus musculus, ip, 30 min before test
Source text: as §1
In the present study two 6 Hz-induced psychomotor seizure tests were performed: (1) the 6 Hz psychomotor seizure threshold test which employed stimulation at varied current intensities, and (2) the 6 Hz psychomotor seizure test with supramaximal stimulation at 32 mA and 44 mA. […]

[5] = system: mice; experiment: Forced swim test; format: in vivo; details: PTE 50 to 200 mg/kg ip, data not shown
Protocol: The forced swim test was carried out according to the method described by Porsolt et al. to assess antidepressant properties of PTE. Mice were placed individually in a glass cylinder (25 cm high; 10 cm diameter) containing tap water to a depth of 11 cm. Water was maintained at temperature of 23–25 °C. Mice were permitted to swim for 6 min and duration of their immobility was recorded during the last 4 min of the test by a trained experimenter who was blinded to the treatment. Immobility time was recorded using cumulative stopwatches. Mouse was considered to be immobile when it was floating in the water without struggling and making no attempts to escape, it was making only these movements necessary to keep its head above the water. After each trial, the water in the cylinder was replaced with fresh water. Experimental groups consisted of 10 animals.
Data obtained in the forced swim test were expressed as the mean (in s) + SEM immobility time in each experimental group. Results were analyzed by one-way ANOVA.

[6] = system: mice; experiment: Chimney test; format: in vivo; details: for Impairment of motor coordination (percentage of animals): 30 min before test
Protocol: The chimney test was performed to evaluate influence of PTE on motor coordination in mice. During the test mice had to climb backwards up the plastic transparent cylinder (inner diameter 3 cm and length 30 cm) with gravelly inside. The inability of mice to escape from the cylinder within 60 s was considered as an motor impairment. Results obtained in the test were presented as percent of impaired mice in groups of 10–12 animals and were compared with the Fisher’s exact probability test.

[7] = system: maximal electroshock seizures; experiment: MES test (supramaximal stimulation); format: in vivo; details: ED50 could not be determined
[8] = design: method as in PMID 25047917; details: after oral administration; cited from earlier work
[9] = system: GABA-induced chloride currents; design: method as in PMID 24462176; details: cited from earlier work

COc1cc(/C=C/c2ccc(O)cc2)cc(OC)c1 [PTE, trans-3,5-dimethoxy-4′-hydroxy-trans-stilbene]
PTZ-induced locomotor activity in zebrafish larvae [1]: significantly reduced | mean duration of ictal-like discharges [2]: statistically significant reduction | number of epileptiform discharges in the zebrafish brain ([2]; vs vehicle): significantly reduced | total duration of epileptiform discharges in the zebrafish brain ([2]; vs vehicle): significantly reduced | CS50 (psychomotor seizure threshold) ([3]; PTE 100 mg/kg ip, p < 0.01): 15.56 (14.18–17.08) mA | CS50 (psychomotor seizure threshold) ([3]; PTE 200 mg/kg ip, p < 0.001): 19.28 (17.15–21.66) mA | ED50 ([4]; current intensity 32 mA): 506 ± 44.7 mg/kg | ED50 ([4]; current intensity 44 mA): 541 ± 41.5 mg/kg | immobility time vs control [5]: did not significantly reduce | Impairment of motor coordination (percentage of animals) ([6]; PTE 50 mg/kg ip): 0% | Impairment of motor coordination (percentage of animals) ([6]; PTE 100 mg/kg ip): 0% | Impairment of motor coordination (percentage of animals) ([6]; PTE 400 mg/kg ip): 0% | Impairment of motor coordination (percentage of animals) ([6]; PTE 600 mg/kg ip): 0% | influence on motor coordination ([6]; PTE 50–800 mg/kg ip): did not significantly influence | anticonvulsant activity in the MES test [7]: lack of significant anticonvulsant activity | brain concentration of PTE relative to pterostilbene-4’sulphate (main metabolite) [8]: nearly fivefold higher | time of peak in brain tissue [8]: 2 h | effect on GABA-induced chloride currents [9]: enhances
